pKi: −log10 of the molar value.
What follows are molecules tested against purified LasB protein from P. aeruginosa (Pseudomonas aeruginosa (strain ATCC 15692 / DSM 22644 / CIP 104116 / JCM 14847 / LMG 12228 / 1C / PRS 101 / PAO1), UniProt P14756) (assay: Fluorometric assay to determine Ki (Abz-Ala-Gly-Leu-Ala-p-Nitro-Benzyl-Amide substrate)). Conditions: 250 μM substrate, Ki calculated from IC50.
Format: biochemical
Procedure: Experiments were therefore conducted (1) to measure the potency of inhibition of compounds of the invention against purified Pseudomonas aeruginosa LasB enzyme and also experiments were conducted (2) to measure the ability of compounds of the invention to inhibit LasB-catalysed elastin degradation. The first assay uses a commercial fluorescent synthetic peptide and purified LasB enzyme. The LasB hydrolysis kinetics are measured allowing the determination of the IC50 and Ki of the inhibitors; the second is a more physiological assay using dialysed Pseudomonas aeruginosa supernatant as source of enzyme, plus its natural substrate Elastin. It is an “end point assay” that determines the percentage of LasB inhibition by each compound for one particular time point and inhibitor concentration. Technical details are described below:
Fluorometric Assay to Determine Ki
This assay uses commercially available substrate (Abz-Ala-Gly-Leu-Ala-p-Nitro-Benzyl-Amide (Ex: 340 nm, Em: 415 nm) from Peptide International) and purified LasB protein from P. aeruginosa (provided by Merck or Charles River Laboratories). It is performed to determine LasB elastase activity and assess compound inhibition in 96-well plate format. All compounds of Formula (I) were assessed using the method described below.
Method: 10 to 140 ng/ml purified LasB is incubated with 250 μM Abz-Ala-Gly-Leu-Ala-p-Nitro-Benzyl-Amide in 50 mM Tris-HCl pH 7.4, 2.5 mM CaCl2), 0.01% of Triton X100 at 37° C. LasB activity (corresponding to fluorescence emission induced by substrate hydrolysis) is measured over 30 min at 37° C. with a fluorescence plate reader such as the Perkin Elmer Envision or similar. Different range of inhibitor concentrations are routinely assessed depending of inhibitor potency from 0.0016 to 200 μM (2-fold dilutions series) in order to determine IC50.
The equation used to calculate the Ki from IC50 is: Ki=IC50/(1+([S]/Km)) where [S]=250 μM and Km=214 μM.

purified LasB protein from P. aeruginosa, sequence (P14756 198-498): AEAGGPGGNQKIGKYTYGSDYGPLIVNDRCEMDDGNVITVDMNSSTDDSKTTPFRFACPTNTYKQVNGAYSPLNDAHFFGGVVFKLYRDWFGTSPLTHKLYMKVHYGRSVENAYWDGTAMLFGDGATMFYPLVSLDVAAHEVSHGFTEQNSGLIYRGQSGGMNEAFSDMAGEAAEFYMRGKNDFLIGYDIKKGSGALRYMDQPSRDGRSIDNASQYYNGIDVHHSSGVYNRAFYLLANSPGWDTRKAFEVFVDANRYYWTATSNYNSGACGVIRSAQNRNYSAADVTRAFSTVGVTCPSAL

SMILES | pKi
COc1cc2sc(CNC(=O)C3(CC(=O)O)Cc4cc(F)c(F)cc4C3)nc2cc1OCC1CCN(C)CC1 [Example 11, 2-[5,6-difluoro-2-[[6-methoxy-5-[(1-methyl-4-piperidyl)methoxy]-1,3-benzothiazol-2-yl]methylcarbamoyl]indan-2-yl]acetic Acid] | > 7.30
COc1cc2sc(CNC(=O)C3(CC(=O)O)Cc4cc(F)c(F)cc4C3)nc2cc1OCCN1CCOCC1 [Example 10, 2-[5,6-difluoro-2-[[6-methoxy-5-(2-morpholinoethoxy)-1,3-benzothiazol-2-yl]methylcarbamoyl]indan-2-yl]acetic Acid] | > 7.30
CC[N+](C)(CC)CCCOc1cc2nc(CNC(=O)C3(CC(=O)[O-])Cc4ccccc4C3)sc2cc1OC [Example 18, 2-[2-[[5-[3-[diethyl(methyl)ammonio]propoxy]-6-methoxy-1,3-benzothiazol-2-yl]methylcarbamoyl]indan-2-yl]acetate] | > 7.30
COc1cc2sc(CNC(=O)C3(CC(=O)[O-])Cc4cc(F)c(F)cc4C3)nc2cc1OCCC[N+](C)(CCO)CCO [Example 23, 2-[2-[[5-[3-[bis(2-hydroxyethyl)-methyl-ammonio]propoxy]-6-methoxy-1,3-benzothiazol-2-yl]methylcarbamoyl]-5,6-difluoro-indan-2-yl]acetate] | > 7.30
COc1cc2sc(CNC(=O)C3(CC(=O)[O-])Cc4cc(F)c(F)cc4C3)nc2cc1OCCC[N+]1(C)CCCC1 [Example 19, 2-[5,6-difluoro-2-[[6-methoxy-5-[3-(1-methylpyrrolidin-1-ium-1-yl)propoxy]-1,3-benzothiazol-2-yl]methylcarbamoyl]indan-2-yl]acetate] | > 7.30
COc1cc2sc(CNC(=O)C3(CC(=O)[O-])Cc4ccccc4C3)nc2cc1OCCC[N+]1(C)CCOCC1 [Example 16, 2-[2-[[6-methoxy-5-[3-(4-methylmorpholin-4-ium-4-yl)propoxy]-1,3-benzothiazol-2-yl]methylcarbamoyl]indan-2-yl]acetate] | > 7.30
COc1cc2sc(CNC(=O)C3(CC(=O)O)Cc4ccccc4C3)nc2cc1C(=O)N1CC(N(C)C)C1 [Example 36, 2-[2-[[5-[3-(dimethylamino)azetidine-1-carbonyl]-6-methoxy-1,3-benzothiazol-2-yl]methylcarbamoyl]indan-2-yl]acetic Acid] | > 7.30
COc1cc2sc(CNC(=O)C3(CC(=O)[O-])Cc4cc(F)c(F)cc4C3)nc2cc1OCCC[N+](C)(C)CCO [Example 21, 2-[5,6-difluoro-2-[[5-[3-[2-hydroxyethyl(dimethyl)ammonio]propoxy]-6-methoxy-1,3-benzothiazol-2-yl]methylcarbamoyl]indan-2-yl]acetate] | > 7.30
COc1cc2sc(CNC(=O)C3(CC(=O)O)Cc4ccccc4C3)nc2cc1OCCN1CCOCC1 [Example 9, 2-[2-[[6-methoxy-5-(2-morpholinoethoxy)-1,3-benzothiazol-2-yl]methylcarbamoyl]indan-2-yl]acetic Acid] | > 7.30
COc1cc2sc(CNC(=O)C3(CC(=O)O)Cc4ccccc4C3)nc2cc1C(=O)N1CCN(C)CC1 [Example 33, 2-[2-[[6-methoxy-5-(4-methylpiperazine-1-carbonyl)-1,3-benzothiazol-2-yl]methylcarbamoyl]indan-2-yl]acetic Acid] | > 7.30
COc1cc2sc(CNC(=O)C3(CC(=O)[O-])Cc4ccccc4C3)nc2cc1OCCC[N+](C)(C)CCO [Example 20, 2-[2-[[5-[3-[2-hydroxyethyl(dimethyl)ammonio]propoxy]-6-methoxy-1,3-benzothiazol-2-yl]methylcarbamoyl]indan-2-yl]acetate] | > 7.30
COc1cc2sc(CNC(=O)C3(CC(=O)[O-])Cc4cc(F)c(F)cc4C3)nc2cc1OCC1CC[N+](C)(C)CC1 [Example 44, 2-[2-[[5-[(1,1-dimethylpiperidin-1-ium-4-yl)methoxy]-6-methoxy-1,3-benzothiazol-2-yl]methylcarbamoyl]-5,6-difluoro-indan-2-yl]acetate] | > 7.30
COc1cc2sc(CNC(=O)C3(CC(=O)O)Cc4cc(F)c(F)cc4C3)nc2cc1C(=O)N1CC(N(C)C)C1 [Example 37, 2-[2-[[5-[3-(dimethylamino)azetidine-1-carbonyl]-6-methoxy-1,3-benzothiazol-2-yl]methylcarbamoyl]-5,6-difluoro-indan-2-yl]acetic Acid] | > 7.30
COc1cc2sc(CNC(=O)C3(CC(=O)[O-])Cc4ccccc4C3)nc2cc1OCCC[N+](C)(CCO)CCO [Example 22, 2-[2-[[5-[3-[bis(2-hydroxyethyl)-methyl-ammonio]propoxy]-6-methoxy-1,3-benzothiazol-2-yl]methylcarbamoyl]indan-2-yl]acetate] | > 7.30

The molecules below were run on Pseudomonas aeruginosa (PAO1) (assay: Mouse model of Pseudomonas aeruginosa lung infection). Conditions: mice infected with wild-type PAO1, intravenous 10 and 30 mg/kg at 1 h and 2 h post infection, 24 hours post infection (FIG. 2).
Format: in vivo
Procedure: Mice were dosed by intranasal inoculation of PA (PAO1), then sacrified after 24 hours. The extent of infection in the lung was quantified by bacterial load (CFU determination, colony forming units) and the levels of proinflammatory IL-1β. Statistical analysis on both readouts were performed by ANOVA with a Dunnett post-test.
Compounds were administered intravenously in a two-dose regimen (1 hour and 2 hours post infection) at two different doses (10 and 30 mg/kg).

SMILES | production and activation of IL-1β in the lung
COc1cc2sc(CNC(=O)C3(CC(=O)[O-])Cc4cc(F)c(F)cc4C3)nc2cc1OCCC[N+](C)(CCO)CCO [Example 23, 2-[2-[[5-[3-[bis(2-hydroxyethyl)-methyl-ammonio]propoxy]-6-methoxy-1,3-benzothiazol-2-yl]methylcarbamoyl]-5,6-difluoro-indan-2-yl]acetate] | inhibited the production and activation of IL-1β in mice infected by wild-type PA (PA01) at a similar level than the lasB deleted mutant

Same assay, conditions: mice infected with wild-type PAO1, intravenous 10 and 30 mg/kg at 1 h and 2 h post infection, 24 hours post infection (FIG. 3)

SMILES | extent of infection in the lung (CFU levels)
COc1cc2sc(CNC(=O)C3(CC(=O)[O-])Cc4cc(F)c(F)cc4C3)nc2cc1OCCC[N+](C)(CCO)CCO [Example 23, 2-[2-[[5-[3-[bis(2-hydroxyethyl)-methyl-ammonio]propoxy]-6-methoxy-1,3-benzothiazol-2-yl]methylcarbamoyl]-5,6-difluoro-indan-2-yl]acetate] | reduced the extent of infection in the lung to the level of the LasB deleted mutant

From patent US12247013B2, “Indane derivatives for use in the treatment of bacterial infection” (priority 2018, dated 2025)
